Source: the NIST ThermoML archive (doi:10.1016/j.jct.2010.08.021)

Assay: mn = molality of the nth substance listed, in mol/kg
Conditions: 101 kPa, Liquid; for speed of sound: Sing-around technique in a fixed-path interferometer; for mass density: Vibrating tube method

N[C@@H](CO)C(=O)O [L-serine] + O
Conditions	mass density [kg/m3]	speed of sound [m/s]
288.15 K, m1 = 0.0192	999.979	1467.9
288.15 K, m1 = 0.028	1000.38	1468.5
288.15 K, m1 = 0.037	1000.78	1468.9
288.15 K, m1 = 0.043	1001.05	1469.4
288.15 K, m1 = 0.0486	1001.3	1469.8
288.15 K, m1 = 0.057	1001.68	1470.3
288.15 K, m1 = 0.0657	1002.07	1470.9
288.15 K, m1 = 0.0804	1002.73	1471.8
288.15 K, m1 = 0.0942	1003.34	1472.7
288.15 K, m1 = 0.1156	1004.3	1474.1
288.15 K, m1 = 0.1329	1005.07	1475.2
288.15 K, m1 = 0.1535	1005.99	1476.6
288.15 K, m1 = 0.1642	1006.46	1477.3
288.15 K, m1 = 0.1789	1007.11	1478.3
288.15 K, m1 = 0.1944	1007.8	1479.2
293.15 K, m1 = 0.0192	999.07	1484
293.15 K, m1 = 0.028	999.466	1484.5
293.15 K, m1 = 0.037	999.867	1485
293.15 K, m1 = 0.043	1000.13	1485.4
293.15 K, m1 = 0.0486	1000.38	1485.8
293.15 K, m1 = 0.057	1000.75	1486.3
293.15 K, m1 = 0.0657	1001.14	1486.8
293.15 K, m1 = 0.0804	1001.79	1487.8
293.15 K, m1 = 0.0942	1002.4	1488.7
293.15 K, m1 = 0.1156	1003.35	1490
293.15 K, m1 = 0.1329	1004.11	1491.1
293.15 K, m1 = 0.1535	1005.02	1492.4
293.15 K, m1 = 0.1642	1005.49	1493.1
293.15 K, m1 = 0.1789	1006.13	1494
293.15 K, m1 = 0.1944	1006.81	1495
298.15 K, m1 = 0.0192	997.9	1498.2
298.15 K, m1 = 0.028	998.291	1498.8
298.15 K, m1 = 0.037	998.691	1499.2
298.15 K, m1 = 0.043	998.951	1499.6
298.15 K, m1 = 0.0486	999.198	1500
298.15 K, m1 = 0.057	999.564	1500.5
298.15 K, m1 = 0.0657	999.952	1501
298.15 K, m1 = 0.0804	1000.6	1501.9
298.15 K, m1 = 0.0942	1001.2	1502.7
298.15 K, m1 = 0.1156	1002.14	1504
298.15 K, m1 = 0.1329	1002.89	1505.1
298.15 K, m1 = 0.1535	1003.79	1506.4
298.15 K, m1 = 0.1642	1004.26	1507
298.15 K, m1 = 0.1789	1004.89	1507.9
298.15 K, m1 = 0.1944	1005.57	1508.8
303.15 K, m1 = 0.0192	996.495	1510.5
303.15 K, m1 = 0.028	996.883	1511.1
303.15 K, m1 = 0.037	997.277	1511.5
303.15 K, m1 = 0.043	997.539	1511.9
303.15 K, m1 = 0.0486	997.781	1512.3
303.15 K, m1 = 0.057	998.143	1512.8
303.15 K, m1 = 0.0657	998.53	1513.2
303.15 K, m1 = 0.0804	999.17	1514.1
303.15 K, m1 = 0.0942	999.763	1514.9
303.15 K, m1 = 0.1156	1000.7	1516.2
303.15 K, m1 = 0.1329	1001.45	1517.2
303.15 K, m1 = 0.1535	1002.34	1518.5
303.15 K, m1 = 0.1642	1002.8	1519.1
303.15 K, m1 = 0.1789	1003.43	1520
303.15 K, m1 = 0.1944	1004.1	1520.8
308.15 K, m1 = 0.0192	994.871	1521.2
308.15 K, m1 = 0.028	995.258	1521.7
308.15 K, m1 = 0.037	995.648	1522.1
308.15 K, m1 = 0.043	995.908	1522.5
308.15 K, m1 = 0.0486	996.152	1522.9
308.15 K, m1 = 0.057	996.512	1523.4
308.15 K, m1 = 0.0657	996.896	1523.8
308.15 K, m1 = 0.0804	997.529	1524.7
308.15 K, m1 = 0.0942	998.119	1525.5
308.15 K, m1 = 0.1156	999.047	1526.7
308.15 K, m1 = 0.1329	999.793	1527.7
308.15 K, m1 = 0.1535	1000.68	1528.9
308.15 K, m1 = 0.1642	1001.14	1529.5
308.15 K, m1 = 0.1789	1001.76	1530.3
308.15 K, m1 = 0.1944	1002.43	1531.2
313.15 K, m1 = 0.0192	993.05	1530.3
313.15 K, m1 = 0.028	993.434	1530.8
313.15 K, m1 = 0.037	993.821	1531.2
313.15 K, m1 = 0.043	994.079	1531.6
313.15 K, m1 = 0.0486	994.322	1532
313.15 K, m1 = 0.057	994.68	1532.4
313.15 K, m1 = 0.0657	995.061	1532.8
313.15 K, m1 = 0.0804	995.691	1533.7
313.15 K, m1 = 0.0942	996.279	1534.4
313.15 K, m1 = 0.1156	997.203	1535.7
313.15 K, m1 = 0.1329	997.943	1536.6
313.15 K, m1 = 0.1535	998.827	1537.8
313.15 K, m1 = 0.1642	999.283	1538.4
313.15 K, m1 = 0.1789	999.905	1539.2
313.15 K, m1 = 0.1944	1000.57	1540
